Results published in paper PMC11003488 (Journal of Enzyme Inhibition and Medicinal Chemistry, 2023).

Tests used:
786-0 = test: NCI-60 SRB growth inhibition, one-dose and five-dose; type: cell-based; conditions: Homo sapiens
IGROV1 = test: as above; type: cell-based; conditions: Homo sapiens
SN12C = test: as above; type: cell-based; conditions: Homo sapiens
EKVX = test: as above; type: cell-based; conditions: Homo sapiens
HCT-15 = test: as above; type: cell-based; conditions: Homo sapiens
RXF 393 = test: as above; type: cell-based; conditions: Homo sapiens
K-562 = test: as above; type: cell-based; conditions: Homo sapiens
OVCAR-3 = test: as above; type: cell-based; conditions: Homo sapiens
HS 578 T = test: as above; type: cell-based; conditions: Homo sapiens
T-47D = test: as above; type: cell-based; conditions: Homo sapiens, T47D
SF-539 = test: as above; type: cell-based; conditions: Homo sapiens
A549/ATCC = test: as above; type: cell-based; conditions: Homo sapiens
A498 = test: as above; type: cell-based; conditions: Homo sapiens
U251 = test: as above; type: cell-based; conditions: Homo sapiens
NCI-H460 = test: as above; type: cell-based; conditions: Homo sapiens
SNB-75 = test: as above; type: cell-based; conditions: Homo sapiens
NCI-H322M = test: as above; type: cell-based; conditions: Homo sapiens
MCF7 = test: as above; type: cell-based; conditions: Homo sapiens
[1] = tested on: NCI 60-cell line panel (full panel); test: NCI-60 SRB growth inhibition, full panel mean / MG-MID; type: cell-based, human
NCI/ADR-RES = test: NCI-60 SRB growth inhibition, one-dose and five-dose; type: cell-based; conditions: Homo sapiens
HCC-2998 = test: as above; type: cell-based; conditions: Homo sapiens
BT-549 = test: as above; type: cell-based; conditions: Homo sapiens
OVCAR-8 = test: as above; type: cell-based; conditions: Homo sapiens
NCI-H522 = test: as above; type: cell-based; conditions: Homo sapiens
SNB-19 = test: as above; type: cell-based; conditions: Homo sapiens
PC-3 = test: as above; type: cell-based; conditions: Homo sapiens
OVCAR-5 = test: as above; type: cell-based; conditions: Homo sapiens
MOLT-4 = test: as above; type: cell-based; conditions: Homo sapiens
RPMI-8226 = test: as above; type: cell-based; conditions: Homo sapiens
NCI-H23 = test: as above; type: cell-based; conditions: Homo sapiens
SW-620 = test: as above; type: cell-based; conditions: Homo sapiens
HL-60(TB) = test: cells; type: cell-based; conditions: Homo sapiens
CAKI-1 = test: NCI-60 SRB growth inhibition, one-dose and five-dose; type: cell-based; conditions: Homo sapiens
SR = test: as above; type: cell-based; conditions: Homo sapiens
HCT-116 = test: as above; type: cell-based; conditions: Homo sapiens
SK-MEL-28 = test: as above; type: cell-based; conditions: Homo sapiens
UACC-62 = test: as above; type: cell-based; conditions: Homo sapiens
TK-10 = test: as above; type: cell-based; conditions: Homo sapiens
HOP-92 = test: as above; type: cell-based; conditions: Homo sapiens
SF-268 = test: as above; type: cell-based; conditions: Homo sapiens
SK-MEL-2 = test: as above; type: cell-based; conditions: Homo sapiens
M14 = test: as above; type: cell-based; conditions: Homo sapiens
[2] = read-out: percent growth inhibition

Cc1ccc(CNc2cccc(C(=O)/C=C/c3cccnc3)c2)cc1 [Compound 5a, (E)-1–(3-((4-methylbenzyl)amino)phenyl)-3-(pyridin-3-yl)prop-2-en-1-one]
GI50 (786-0; 786-0): 15.5 µM | inhibition at 10 µM (786-0; 786-0, read-out: percent growth inhibition): 126% | GI50 (IGROV1; IGROV-1): 13.6 µM | inhibition at 10 µM (IGROV1; IGROV-1, read-out: percent growth inhibition): 44.5% | GI50 (SN12C): 12.6 µM | inhibition at 10 µM (SN12C; [2]): 118% | GI50 (EKVX): 12.8 µM | inhibition at 10 µM (EKVX; [2]): 52.3% | GI50 (HCT-15; HCT-15): 4.15 µM | inhibition at 10 µM (HCT-15; HCT-15, read-out: percent growth inhibition): 156% | GI50 (RXF 393; RXF 393): 12.3 µM | inhibition at 10 µM (RXF 393; RXF 393, read-out: percent growth inhibition): 67.9% | GI50 (K-562; K562): 3.09 µM | inhibition at 10 µM (K-562; K562, read-out: percent growth inhibition): 93.6% | GI50 (OVCAR-3; OVCAR-3): 7.19 µM | inhibition at 10 µM (OVCAR-3; OVCAR-3, read-out: percent growth inhibition): 84.8% | GI50 (HS 578 T): 14.6 µM | inhibition at 10 µM (HS 578 T; [2]): 69.2% | GI50 (T-47D): 9.84 µM | inhibition at 10 µM (T-47D; [2]): 105% | GI50 (SF-539; SF-539): 15.6 µM | inhibition at 10 µM (SF-539; SF-539, read-out: percent growth inhibition): 152% | GI50 (A549/ATCC; A549): 17.3 µM | inhibition at 10 µM (A549/ATCC; A549, read-out: percent growth inhibition): 27.2% | GI50 (A498; A498): 14.4 µM | inhibition at 10 µM (A498; A498, read-out: percent growth inhibition): 14.1% | GI50 (U251; U-251): 9.87 µM | inhibition at 10 µM (U251; U-251, read-out: percent growth inhibition): 193% | GI50 (NCI-H460; NCI-H460): 12.9 µM | inhibition at 10 µM (NCI-H460; NCI-H460, read-out: percent growth inhibition): 42% | GI50 (SNB-75; SNB-75): 13.1 µM | inhibition at 10 µM (SNB-75; SNB-75, read-out: percent growth inhibition): 46.6% | GI50 (NCI-H322M): 15.7 µM | inhibition at 10 µM (NCI-H322M; [2]): 19.6% | GI50 (MCF7; MCF7): 2.79 µM | inhibition at 10 µM (MCF7; MCF7, read-out: percent growth inhibition): 148% | GI50 ([1]; Homo sapiens, 60 cell, read-out: Full panel GI50 mean): 10.8 µM | Full panel Mean GI % ([1]; mean over NCI-60 panel, single dose 10 µM): 82.76% | GI50 (NCI/ADR-RES): 7.54 µM | GI50 (HCC-2998; HCC 2998): 14.1 µM | inhibition at 10 µM (HCC-2998; HCC 2998, read-out: percent growth inhibition): 52.8% | GI50 (BT-549; BT-549): 10.4 µM | inhibition at 10 µM (BT-549; BT-549, read-out: percent growth inhibition): 111% | GI50 (OVCAR-8; OVCAR-8): 13.1 µM | inhibition at 10 µM (OVCAR-8; OVCAR-8, read-out: percent growth inhibition): 88.3% | GI50 (NCI-H522; NCI-H522): 13.8 µM | inhibition at 10 µM (NCI-H522; NCI-H522, read-out: percent growth inhibition): 134% | GI50 (SNB-19; SNB-19): 14 µM | inhibition at 10 µM (SNB-19; SNB-19, read-out: percent growth inhibition): 34.9% | GI50 (PC-3; PC-3): 14.2 µM | inhibition at 10 µM (PC-3; PC-3, read-out: percent growth inhibition): 84.8% | GI50 (OVCAR-5; OVCAR-5): 15.6 µM | inhibition at 10 µM (OVCAR-5; OVCAR-5, read-out: percent growth inhibition): 52.2% | GI50 (MOLT-4; MOLT-4): 3.54 µM | inhibition at 10 µM (MOLT-4; MOLT-4, read-out: percent growth inhibition): 57.3% | GI50 (RPMI-8226; RPMI-8226): 1.76 µM | inhibition at 10 µM (RPMI-8226; RPMI-8226, read-out: percent growth inhibition): 98.6% | GI50 (NCI-H23; NCI-H23): 12.2 µM | inhibition at 10 µM (NCI-H23; NCI-H23, read-out: percent growth inhibition): 47.9% | GI50 (SW-620; SW-620): 2.03 µM | inhibition at 10 µM (SW-620; SW-620, read-out: percent growth inhibition): 173% | GI50 (HL-60(TB); HL-60): 6.25 µM | inhibition at 10 µM (HL-60(TB); HL-60, read-out: percent growth inhibition): 54.6% | GI50 (CAKI-1; CAKI-1): 11.7 µM | inhibition at 10 µM (CAKI-1; CAKI-1, read-out: percent growth inhibition): 36.7% | GI50 (SR): 2.82 µM | inhibition at 10 µM (SR; [2]): 85.6% | GI50 (HCT-116; HCT-116, HCT-116, five-dose screening): 2.07 µM | inhibition at 10 µM (HCT-116; HCT-116, read-out: percent growth inhibition): 189% | GI50 (SK-MEL-28; SK-MEL-28): 14.7 µM | inhibition at 10 µM (SK-MEL-28; SK-MEL-28, read-out: percent growth inhibition): 71.6% | GI50 (UACC-62; UACC-62): 11.1 µM | inhibition at 10 µM (UACC-62; UACC-62, read-out: percent growth inhibition): 58.4% | GI50 (TK-10; TK-10): 14.4 µM | inhibition at 10 µM (TK-10; TK-10, read-out: percent growth inhibition): 18.9% | GI50 (HOP-92; HOP-92): 10.9 µM | inhibition at 10 µM (HOP-92; HOP-92, read-out: percent growth inhibition): 41.8% | GI50 (SF-268; SF-268): 12.8 µM | inhibition at 10 µM (SF-268; SF-268, read-out: percent growth inhibition): 38.2% | GI50 (SK-MEL-2; SK-MEL-2): 14.3 µM | inhibition at 10 µM (SK-MEL-2; SK-MEL-2, read-out: percent growth inhibition): 35.9% | GI50 (M14; M14): 13.1 µM | inhibition at 10 µM (M14; M14, read-out: percent growth inhibition): 92.7%
